# Tests used:
# [1] = test system: DSS-induced ulcerative colitis mice; test: DSS-induced ulcerative colitis in mice; format: in vivo, C57BL/6J mice; conditions: 5.0% DSS mice, 1×10^10 CFU/mL intragastric daily 9 d
# Procedure: Animals and their management: male C57BL/6J mice (6 to 10-week-old, weighing 18 to 24 g) purchased from the Beijing Huafukang Biotechnology Co., Ltd, where procedures involving mice were carried out in strict accordance with international animal care standards, and approved by the Animal Protection Institute and Management Committee of Jilin Agricultural University. Adaptive culture was performed for 1 week, and mice were cultured at room temperature (25° C.±1° C.) in a cycle of 12 h of light and 12 h of darkness.
# Animal experimental design: 5.0% (wt/vol) DSS (molecular weight: 36,000 to 50,000) was added to drinking water of the mice for 3 consecutive days to induce colitis. Beginning on the first day of taking DSS, the A. muciniphila (viable or inactivated, with a concentration of 1×10^10 CFU/mL) was intragastrically administered per day for 9 consecutive days. C57BL/6J mice were randomly divided into four groups: a control group, a DSS model group (DSS), an AKK PRO group, and an inactivated AKK PRO group (mAKK PRO). Physiological indicators of the mice in each group were observed.
# Physiological indicators: The physiological indicators are used for assessing health statuses of the mice. The individual scores of the mice were combined to generate disease activity indices (DAI), including changes of body weight, food intake, and fecal consistency. After the mice were euthanized, the colon length and the liver weight of each mouse in each group were measured, and an immune organ index was calculated according to the following formula: liver index=liver weight (mg)/body weight (g) [Wang, X., et al., Troxerutin Improves Dextran Sulfate Sodium-Induced Ulcerative Colitis in Mice. J Agric Food Chem, 2021. 69 (9): p. 2729-2744.].
# [2] = test system: AOM/DSS-induced colorectal carcinoma mice; test: AOM/DSS-induced colorectal carcinoma mice; format: in vivo, C57BL/6 mice; conditions: for colorectum weight/length (ratio): model group 4.34±0.35, normal 2.81±0.34
# Procedure: 6-week-old SPF male C57BL/6 mice, purchased from the Chongqing Lepitt Biotechnology Co., Ltd. The mice were raised in a standardized laboratory with room temperature of 25° C.±2° C., relative humidity of 50%±5%, and 12 h of light/12 h of darkness. […] In experiments, mice were given free feeding and water. On the first day of experimental molding, the mice in the model group, the aspirin group, and the AKKP group were injected intraperitoneally with AOM at a dosage of 10 mg/kg, and were fed with 2.5% DSS aqueous solution at weeks 2, 5, and 8. The mice in the normal group and model group were intragastrically administrated with sterile saline; the mice in the aspirin group were intragastrically administrated with an aspirin solution at 67 mg/kg, and the mice in the AKKPL group and the AKKPH group were intragastrically administrated at dosages of 1×10^8 CFU/kg and 1×10^9 CFU/kg, respectively, for 10 consecutive weeks. In the experiments, diet, activity, vigor and hair conditions, and fecal properties of the mice in each group were observed. Each mouse was weighed per week and the body weights were recorded. After the experiments, blood was collected from eyeballs and the mice were sacrificed by removing their vertebrae. The mice were dissected to take out large intestine tissue, spleen tissue, liver tissue, and the kidney tissue for later testing.
# After the mice were dissected, the large intestine tissue, the spleen tissue, the liver tissue, and the kidney tissue were taken out and weighed. An organ Index was calculated using a formula, while the colorectum length of the mouse was measured and the colorectal tumorigenesis number of the mouse was recorded. Organ index=organ weight (mg)/mouse body weight (g).
# After being fixed in a tissue fixative for 24 h, the rectum of the mouse was transferred into 95% ethanol for dehydration, and then the dehydrated rectum was placed in xylene to replace alcohol in the tissue to make the rectum tissue transparent. Then, the treated rectum was embedded with paraffin. The embedded rectum was sectioned by a microtome, and then a tissue section was stained with H&E and fixed, obtaining a pathologic tissue section, with a thickness of 2 to 3 μm, of the rectum of the mouse, and the pathologic tissue section was observed under the upright microscope.
# Whole blood was collected from the eyeballs, and centrifuged at 4000 r/min and 4° C. for 10 min to separate supernatant serum. According to the instruction of the ELISA kit, the levels of IL-1β, IL-6, IFN-γ, iNOS and NF-κB in the serum of the mouse were determined.
# About 50 mg colon tissue was taken and cleaned with saline, and the cleaned colon tissue was placed in a homogenization tube containing 6 zirconia beads, and 500 μL TRIzol™ reagent was added to extract RNA in the tissue. The purity and concentration of RNA were determined using the micro-spectrophotometer. […] Then, after cDNA was generated by reverse transcription, a reaction system containing 1 μL cDNA was prepared. Other reagents include 10 μL qPCR SYBR Green Master Mix, […] sterile distilled water, 1 μL forward primer and 1 μL reverse primer. qRT-PCR amplification reaction conditions: 95° C., 10 s, 60° C., 30 s, 40 cycles; 95° C., 15 s, 60° C., 60 s, 95° C., 15 s. Taking Eef2 as an internal reference gene, the mRNA relative expression of each target gene was calculated according to formula 2^−ΔΔCt.
# [3] = qRT-PCR, aspirin 67 mg/kg or AKKPH 1×10^9 CFU/kg, vs model group, P<0.05
# [4] = qRT-PCR, vs model group, P<0.05
substance,measurement,setting,value
Akkermansia muciniphila [AKK PROBIO],immune organ index (liver index),[1]; vs DSS group,significantly decreased
same,colon length,"[1]; vs DSS group, P<0.05",significantly increased
same,DAI score,[1]; vs model group,lower
same,body weight reduced,[1]; vs model group,less
same,food intake reduced,[1]; vs model group,less
same,colorectum weight/length (ratio),[2]; AKKPH 1×10^9 CFU/kg intragastric 10 weeks,2.97±0.18
same,colorectum weight/length (ratio),[2]; AKKPL 1×10^8 CFU/kg intragastric 10 weeks,3.18±0.31
same,body weight loss,"[2]; AOM/DSS mice, intragastric 10 weeks, aspirin 67 mg/kg, AKKP 1×10^8 and 1×10^9 CFU/kg",alleviate the body weight loss in the mice to a certain extent
same,content of IL-6 in serum,"[2]; ELISA, vs model group",reduced
same,content of IFN-γ in serum,"[2]; ELISA, vs model group, P<0.05",reduced
same,content of IL-1β in serum,"[2]; ELISA, vs model group, P<0.05",lower than that in the model group
same,content of NF-κB in serum,"[2]; ELISA, vs model group, P<0.05",reduced
same,content of iNOS in serum,"[2]; ELISA, vs model group, P<0.05",reduced
same,pathological morphology of rectum tissue (H&E),"[2]; aspirin, AKKPL and AKKPH groups",no obvious erosion found in the rectal mucosa
same,kidney index / renal tissue,"[2]; between the five groups, P>0.05",no significant difference
same,mRNA relative expression of IκBβ in colon tissue,[2]; [3],significantly reduced
same,mRNA relative expression of p50 in colon tissue,[2]; [3],significantly reduced
same,mRNA relative expression of Bid in colon tissue,[2]; [4],significantly increased
same,mRNA relative expression of Bim in colon tissue,[2]; [4],significantly increased
same,mRNA relative expression of caspase-9 in colon tissue,[2]; [4],significantly increased
same,mRNA relative expression of p52 in colon tissue,[2]; [4],significantly reduced
same,mRNA relative expression of p65 in colon tissue,[2]; [4],significantly reduced
same,colorectal tumorigenesis number,"[2]; vs model group, P<0.05",significantly smaller
same,liver weight (liver index),"[2]; vs model group, P<0.05",reduced
same,spleen weight (spleen index),"[2]; vs model group, P<0.05",reduced
same,colorectum length,"[2]; vs model group, P<0.05, aspirin 67 mg/kg, AKKP 1×10^8 and 1×10^9 CFU/kg, 10 weeks",relatively long

# Reference: patent US12606795B2 (Thankcome Biological Science and Technology (SuZhou) Co., …, priority 2023, dated 2026)
